The record followed here is patent publication US20170258930A1, “SKIN PENETRATING PEPTIDES (SPPS) AND METHODS OF USE THEREFOR” (The Regents of the University of California, priority 2014, published 2017).

In this experiment the test system is full thickness porcine skin. The experiment can be described thus: Phage display library (PDL) screening for skin penetrating peptides on porcine skin in Franz diffusion cells. Type of experiment: in vitro ADME. Conditions: for Frequency (how many times a same peptide sequence was identified when 31 peptides were randomly picked from the receptor compartment): after third round of screening, phage-displayed 12-mer peptides, four different skin samples (n = 4), receptor collected after 24 hours. The procedure: Phage Display Library (PDL) screening was performed on full thickness porcine skin using Franz diffusion cells. Porcine skin was sandwiched in between the donor and receptor compartments in such a way that SC faced the donor compartment. Phosphate-buffered saline (PBS: 10 mM), pH 7.4 (12 ml) was added in the receptor compartment. The skin was equilibrated at 37° C. for 0.5-1 hours before the experiment. The skin integrity was determined by measuring the skin conductivity.
To perform PDL screening, 1×10^11 plaque forming units (pfu) of phages from a 12-mer phage display peptide library (PDL) were added into the donor compartment and covered with parafilm to maintain the occlusive condition. Phage particles which permeated across the skin were collected from the receptor chamber after 24 hours and amplified using a standard M13 phage amplification protocol. Amplified pool of phages (1×10^11 pfu) was loaded again in the donor chamber for another round of screening. In this way, three rounds of screenings were performed.
After third round of screening, DNAs were isolated from phages, which crossed the skin consistently in higher numbers, and sent for DNA sequencing to analyze the peptide present on their surface. After three round of screening, seven (7) peptide sequences that consistently crossed the skin were identified (see Table 3). […] The identified peptides, SEQ ID NOs: 1-7, are referred to herein as skin penetrating peptides (SPPs).

Turning to “AYNAGSILENNF [YNAGSILENNF (SEQ ID NO: 5), 12-mer skin penetrating peptide (SPP) identified by phage display library screening on porcine skin]”, the “Frequency (how many times a same peptide sequence was identified when 31 peptides were randomly picked from the receptor compartment)” value (“Frequency” below) was 2 out of 31.
On the same count and under the same terms, the same measure for “SHMQNRPASDEH [SHMQNRPASDEH (SEQ ID NO: 4), 12-mer skin penetrating peptide (SPP) identified by phage display library screening on porcine skin]”: 3 out of 31.
In the case of “HIITDPNMAEYL [HIITDPNMAEYL (SEQ ID NO: 1), 12-mer skin penetrating peptide (SPP) identified by phage display library screening on porcine skin]”, the “Frequency” value is given as 8 out of 31. In addition, the “Crossing of the skin by phage displaying the peptide (in words)” value (after three rounds of screening, full thickness porcine skin) is reported as “crossed the skin at very high frequency”.
As for “NSLRNYDFLITM [NSLRNYDFLITM (SEQ ID NO: 7), 12-mer skin penetrating peptide (SPP) identified by phage display library screening on porcine skin]”, the “Frequency” value is listed as 2 out of 31.
Turning to “GYGFSNTNSFFV [GYGFSNTNSFFV (SEQ ID NO: 3), 12-mer skin penetrating peptide (SPP) identified by phage display library screening on porcine skin]”, the “Frequency” value is listed as 3 out of 31.
With “SYTQRADSTTLH [SYTQRADSTTLH (SEQ ID NO: 2), 12-mer skin penetrating peptide (SPP) identified by phage display library screening on porcine skin]”, the “Frequency” value is recorded as 3 out of 31.
As to “LVPDRMTAISRA [LVPDRMTAISRA (SEQ ID NO: 6), 12-mer skin penetrating peptide (SPP) identified by phage display library screening on porcine skin]”, the “Frequency” value is reported as 2 out of 31.
